# According to PMC10947113, “A Bivalent Activatable Fluorescent Probe for Screening and Intravital Imaging of Chemotherapy‐Induced Cancer Cell Death” (Angewandte Chemie (Weinheim an Der Bergstrasse, Germany), 2021):
# Starred links: 1 amine or outer side, 2 acyl side, 3 side chain; linkers in the order of their positions; H or OH if unused. Non-standard residues stand in square brackets, D forms with d. Residues, ends and D or L forms follow the SMILES beside them. X1 = CC1=CC(C)=[N+]2C1=C(c1cccc(-c3[nH]c4ccccc4c3C[C@H](N[*:1])C(=O)[*:2])c1)c1ccc(-c3ccc(C)s3)n1[B-]2(F)F
# Columns and labels:
# MCF7 cells = assay: Cell viability, TACS MTT cell proliferation assay, MCF7; format: cell-based, human; details: different working concentrations, 3 h, means ± SD (n=5), ns for p>0.05
# Description: (§1) Figure S15. Cell viability experiments (TACS® MTT cell proliferation assay) after incubation of Apotracker Red in breast cancer cell lines (a: MCF7 cells, b: MDA-MB-231 cells) at different concentrations for 3 h. Data presented as means ± SD (n=5). P values obtained from one- way ANOVA using multiple comparisons (ns for p>0.05).
# (§2) Figure S16. Quantification of E GFP+ macrophages in tumours from untreated and cisplatin-treated mice by time- lapse imaging on a spinning disk confocal microscope (λexc: 488 nm). Data presented as means ± SD of 8 random areas in 2- 3 mice per group (untreated or treated with 10 μg g-1 cisplatin for 72 h). […]
# MDA-MB-231 cells = assay: Cell viability, TACS MTT cell proliferation assay, MDA-MB-231; format: cell-based, human; details: different working concentrations, 3 h, means ± SD (n=5), ns for p>0.05
# Description: as §1, §2
# [1] = Stability analysis in mouse serum; format: in vitro ADME; details: 24 h, 37 °C, 500 rpm shaker, 50 μM (method) or 25 μM (Figure S14), CH3CN protein precipitation, HPLC traces and fluorescence emission (exc 520 nm)
# Description: Figure S14. Stability analysis of Apotracker Red in mouse serum. HPLC traces of Apotracker Red (25 μM) after incubation in PBS buffer or mouse serum for 24 h at 37 °C . […]
# fluorescence emission of Apotracker Red before and after incubation in mouse serum and […]
# (1 picture or pasted object on this page, not shown here) […]
# r.t., followed by separation from erythrocytes by centrifugation for 10 min, 2, 000 g at r.t. Sera were transferred into new tubes and stored at - 20°C until use. 50 μM Apotracker Red in PBS or in serum were incubated fo r 24 h at 37 °C on a vertical shaker at 500 rpm . A s control s, seru m without peptide and freshly aliquoted 50 μM Apotracker Red in mouse serum were used.
# Fluorescence spectra were recorded after excitation at 520 nm. For HPLC measurements, proteins were precipitated by addition of CH3CN and centrifugation at 300 g fo r 5 m in a t r.t. and the resulting supernatants were injected.
# Lipid layer assays . […] The limit of detection (LoD) of Apotracker Red for PtdSer was determined by fluorescence titration of serial dilutions of Pt dSer layers after incubation with Apotracker Red (1 μM, PBS) at 25 °C for 40 min. The LoD was calculated using the equation LoD = (3 × σ)/k, where σ is the standard deviation of blank solutions and k is the slope of the linear regression fit. Data was recorded on Cytation 3 (exc: 530 nm). […]
smiles,measurement,setting,value
CC1=CC(C)=[N+]2C1=C(c1cccc(-c3[nH]c4ccccc4c3C[C@@H]3NC(=O)[C@H](Cc4ccccc4)NC(=O)[C@H](Cc4c[nH]c5ccccc45)NC(=O)[C@H](CCCCN)NC(=O)[C@H](CCCCN)NC(=O)[C@H](CCCNC(=N)N)NC(=O)CNC3=O)c1)c1ccc(-c3ccc(C)s3)n1[B-]2(F)F [Apotracker Red] (cyclo(F[X1]GRKKW)),"cell toxicity (MTT cell viability), MCF7",MCF7 cells,did not cause cell toxicity
same,"cell toxicity (MTT cell viability), MDA-MB-231",MDA-MB-231 cells,did not cause cell toxicity
same,proteolytic stability in mouse serum,[1],good proteolytic stability for up to 24 h
